Laboratory results: the NIST ThermoML archive (doi:10.1021/je900570e)
Numbers after ± are expanded uncertainties.

Test: xn = mol fraction of the nth substance listed
Conditions: Liquid; for viscosity / speed of sound: 101 kPa; for viscosity: Capillary tube (Ostwald / Ubbelohde) method; for speed of sound: Frequency=2 MHz, Pulse-echo method; for mass density: 101.33 kPa, Vibrating tube method

N#CCc1ccccc1 [benzeneacetonitrile] + ClCCCl
Conditions | mass density, 303.15 K [kg/m3] | mass density, 308.15 K [kg/m3] | mass density, 313.15 K [kg/m3] | speed of sound, 303.15 K [m/s] | speed of sound, 308.15 K [m/s] | speed of sound, 313.15 K [m/s] | viscosity, 303.15 K [mPa·s] | viscosity, 308.15 K [mPa·s] | viscosity, 313.15 K [mPa·s]
x1 = 0.0165 | 1233.5 ± 0.4 | 1225.3 ± 0.4 | 1218.7 ± 0.4 | 1182.2 ± 7.2 | 1171.9 ± 7.1 | 1161 ± 7.1 | 0.7352 ± 0.012 | 0.6821 ± 0.011 | 0.6456 ± 0.011
x1 = 0.1059 | 1205.5 ± 0.5 | 1198.9 ± 0.5 | 1191.5 ± 0.5 | 1221.2 ± 7.4 | 1211.5 ± 7.4 | 1200.5 ± 7.3 | 0.8165 ± 0.012 | 0.7512 ± 0.012 | 0.708 ± 0.012
x1 = 0.2041 | 1177.1 ± 0.5 | 1171 ± 0.5 | 1163.5 ± 0.5 | 1262.4 ± 7.7 | 1252.3 ± 7.6 | 1243.7 ± 7.6 | 0.9029 ± 0.013 | 0.8313 ± 0.012 | 0.7877 ± 0.012
x1 = 0.3088 | 1149.2 ± 0.5 | 1143.5 ± 0.5 | 1136.1 ± 0.5 | 1304.2 ± 8 | 1293.6 ± 7.9 | 1285.3 ± 7.8 | 1.003 ± 0.014 | 0.9258 ± 0.013 | 0.8746 ± 0.013
x1 = 0.4073 | 1124.8 ± 0.6 | 1119.4 ± 0.6 | 1111.8 ± 0.6 | 1339.5 ± 8.2 | 1330.8 ± 8.1 | 1320.8 ± 8.1 | 1.103 ± 0.015 | 1.017 ± 0.014 | 0.9576 ± 0.013
x1 = 0.5122 | 1100.7 ± 0.6 | 1095.6 ± 0.6 | 1087.6 ± 0.6 | 1374.8 ± 8.4 | 1367.5 ± 8.4 | 1355.9 ± 8.3 | 1.213 ± 0.016 | 1.117 ± 0.015 | 1.048 ± 0.014
x1 = 0.648 | 1072 ± 0.7 | 1067.2 ± 0.7 | 1058.8 ± 0.7 | 1418.6 ± 8.7 | 1411.8 ± 8.7 | 1399.9 ± 8.6 | 1.365 ± 0.017 | 1.248 ± 0.016 | 1.165 ± 0.016
x1 = 0.8003 | 1042.8 ± 0.8 | 1038.2 ± 0.8 | 1029.5 ± 0.7 | 1465.2 ± 9 | 1458.9 ± 9 | 1447.6 ± 8.9 | 1.536 ± 0.02 | 1.398 ± 0.018 | 1.299 ± 0.017
x1 = 0.9705 | 1013.6 ± 0.8 | 1008.8 ± 0.8 | 999.9 ± 0.8 | 1512.6 ± 9.3 | 1505.4 ± 9.3 | 1499.1 ± 9.2 | 1.725 ± 0.023 | 1.568 ± 0.021 | 1.456 ± 0.02
x1 = 1 | 1008.8 ± 0.9 | 1004.1 ± 0.8 | 999.5 ± 0.8 | 1519.2 ± 9.4 | 1512.9 ± 9.3 | 1503.4 ± 9.3 | 1.761 ± 0.023 | 1.602 ± 0.021 | 1.489 ± 0.02
